Results from PubChem BioAssay (NCI).
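Abbreviation: GI50, concentration required for 50% inhibition of growth. TGI is the concentration that stops growth completely.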

Assays:
Experiment in all cases: DTP human tumour cell line panel, 384-well format
A549 NSCLC = system: A549 NSCLC
DU-145 prostate = system: DU-145 prostate
K-562 leukemia = system: K-562 leukemia
NCI-H23 lung = system: NCI-H23 lung
TK-10 renal = system: TK-10 renal
HCT-116 colon = system: HCT-116 colon
SF-539 CNS = system: SF-539 CNS
SF-268 CNS = system: SF-268 CNS
SK-MEL-2 melanoma = system: SK-MEL-2 melanoma
ACHN renal = system: ACHN renal
PC-3 prostate = system: PC-3 prostate
HCT-15 colon = system: HCT-15 colon
SNB-19 CNS = system: SNB-19 CNS
T-47D breast = system: T-47D breast
NCI-H322M lung = system: NCI-H322M lung
HT29 colon = system: HT29 colon
UO-31 renal = system: UO-31 renal
BT-549 breast = system: BT-549 breast
MALME-3M melanoma = system: MALME-3M melanoma
SK-MEL-28 melanoma = system: SK-MEL-28 melanoma
OVCAR-8 ovarian = system: OVCAR-8 ovarian
SN12C renal = system: SN12C renal
SR leukemia = system: SR leukemia
SNB-75 CNS = system: SNB-75 CNS
A498 renal = system: A498 renal
NCI/ADR-RES ovarian = system: NCI/ADR-RES ovarian
SK-MEL-5 melanoma = system: SK-MEL-5 melanoma
HOP-92 NSCLC = system: HOP-92 NSCLC
COLO 205 colon = system: COLO 205 colon
UACC-257 melanoma = system: UACC-257 melanoma
MDA-MB-435 melanoma = system: MDA-MB-435 melanoma
MDA-MB-468 breast = system: MDA-MB-468 breast
MDA-MB-231 breast = system: MDA-MB-231 breast
UACC-62 melanoma = system: UACC-62 melanoma
CCRF-CEM leukemia = system: CCRF-CEM leukemia
EKVX NSCLC = system: EKVX NSCLC
HS 578T breast = system: HS 578T breast
NCI-H522 lung = system: NCI-H522 lung
U251 glioblastoma = system: U251 glioblastoma
HOP-62 NSCLC = system: HOP-62 NSCLC
HCC-2998 colon = system: HCC-2998 colon
NCI-H460 NSCLC = system: NCI-H460 NSCLC
CAKI-1 renal = system: CAKI-1 renal
786-0 renal = system: 786-0 renal
LOX IMVI melanoma = system: LOX IMVI melanoma
HL-60(TB) leukemia = system: HL-60(TB) leukemia
MOLT-4 leukemia = system: MOLT-4 leukemia
IGROV1 ovarian = system: IGROV1 ovarian
SF-295 CNS = system: SF-295 CNS
M14 melanoma = system: M14 melanoma
SK-OV-3 ovarian = system: SK-OV-3 ovarian
OVCAR-5 ovarian = system: OVCAR-5 ovarian
RPMI-8226 leukemia = system: RPMI-8226 leukemia
KM12 colon = system: KM12 colon
NCI-H226 lung = system: NCI-H226 lung
OVCAR-4 ovarian = system: OVCAR-4 ovarian
SW-620 colon = system: SW-620 colon
MCF7 breast = system: MCF7 breast
OVCAR-3 ovarian = system: OVCAR-3 ovarian

## CCC1=C[C@@H]2CN(C1)Cc1c([nH]c3ccccc13)[C@@](C(=O)OC)(c1cc3c(cc1OC)N(C)[C@H]1[C@@](O)(C(=O)OC)[C@H](OC(C)=O)[C@]4(CC)C=CCN5CC[C@]31[C@@H]54)C2
A549 NSCLC
  GI50: 270 nM
  TGI: 11800 nM
DU-145 prostate
  GI50: 139 nM
  TGI: 1740 nM
K-562 leukemia
  GI50: 42.1 nM
  TGI: 174 nM
NCI-H23 lung
  GI50: 251 nM
  TGI: 881 nM
TK-10 renal
  GI50: 1110 nM
  TGI: 18600 nM
HCT-116 colon
  GI50: 73.9 nM
  TGI: 3920 nM
SF-539 CNS
  GI50: 76.5 nM
  TGI: 243 nM
SF-268 CNS
  GI50: 228 nM
  TGI: 12900 nM
SK-MEL-2 melanoma
  GI50: 37 nM
  TGI: 216 nM
ACHN renal
  GI50: 2770 nM
  TGI: 24500 nM
PC-3 prostate
  GI50: 210 nM
  TGI: 12600 nM
HCT-15 colon
  GI50: 971 nM
  TGI: 8150 nM
SNB-19 CNS
  GI50: 180 nM
  TGI: 4700 nM
T-47D breast
  GI50: 10600 nM
  TGI: 25500 nM
NCI-H322M lung
  GI50: 645 nM
  TGI: 17800 nM
HT29 colon
  GI50: 58.5 nM
  TGI: 1100 nM
UO-31 renal
  GI50: 4510 nM
  TGI: 17900 nM
BT-549 breast
  GI50: 64.3 nM
  TGI: 710 nM
MALME-3M melanoma
  GI50: 120 nM
  TGI: 18700 nM
SK-MEL-28 melanoma
  GI50: 1520 nM
  TGI: 16100 nM
OVCAR-8 ovarian
  GI50: 237 nM
  TGI: 768 nM
SN12C renal
  GI50: 210 nM
  TGI: 20100 nM
SR leukemia
  GI50: < 10 nM
  TGI: 16.1 nM
SNB-75 CNS
  GI50: 48.8 nM
  TGI: 126 nM
A498 renal
  GI50: 203 nM
  TGI: 2390 nM
NCI/ADR-RES ovarian
  GI50: 24800 nM
  TGI: > 64300 nM
SK-MEL-5 melanoma
  GI50: 22 nM
  TGI: 49.4 nM
HOP-92 NSCLC
  GI50: 993 nM
  TGI: 11900 nM
COLO 205 colon
  GI50: 51.6 nM
  TGI: 506 nM
UACC-257 melanoma
  GI50: 1260 nM
  TGI: 15400 nM
MDA-MB-435 melanoma
  GI50: 15.5 nM
  TGI: 47.2 nM
MDA-MB-468 breast
  GI50: 17.4 nM
  TGI: 35.5 nM
MDA-MB-231 breast
  GI50: 314 nM
  TGI: 14200 nM
UACC-62 melanoma
  GI50: 35.9 nM
  TGI: 901 nM
CCRF-CEM leukemia
  GI50: 53.5 nM
  TGI: 104 nM
EKVX NSCLC
  GI50: 650 nM
  TGI: 16200 nM
HS 578T breast
  GI50: 63.3 nM
  TGI: 174 nM
NCI-H522 lung
  GI50: 20.9 nM
  TGI: 46.2 nM
U251 glioblastoma
  GI50: 75.4 nM
  TGI: 1810 nM
HOP-62 NSCLC
  GI50: 212 nM
  TGI: 12600 nM
HCC-2998 colon
  GI50: 66.7 nM
  TGI: 286 nM
NCI-H460 NSCLC
  GI50: 69.4 nM
  TGI: 220 nM
CAKI-1 renal
  GI50: 651 nM
  TGI: 8980 nM
786-0 renal
  GI50: 367 nM
  TGI: 6050 nM
LOX IMVI melanoma
  GI50: 171 nM
  TGI: 9700 nM
HL-60(TB) leukemia
  GI50: 20.1 nM
  TGI: 37.8 nM
MOLT-4 leukemia
  GI50: 20.2 nM
  TGI: 36.6 nM
IGROV1 ovarian
  GI50: 652 nM
  TGI: > 32700 nM
SF-295 CNS
  GI50: 95.1 nM
  TGI: 239 nM
M14 melanoma
  GI50: 214 nM
  TGI: 13400 nM
SK-OV-3 ovarian
  GI50: 113 nM
  TGI: 5850 nM
OVCAR-5 ovarian
  GI50: 638 nM
  TGI: 19700 nM
RPMI-8226 leukemia
  GI50: 33.6 nM
  TGI: 83.4 nM
KM12 colon
  GI50: 50.8 nM
  TGI: 4300 nM
NCI-H226 lung
  GI50: 681 nM
  TGI: 18600 nM
OVCAR-4 ovarian
  GI50: 2670 nM
  TGI: > 62600 nM
SW-620 colon
  GI50: 155 nM
  TGI: 15100 nM
MCF7 breast
  GI50: 65.1 nM
  TGI: 4760 nM
OVCAR-3 ovarian
  GI50: 34.3 nM
  TGI: 171 nM
